# Earlier results as cited in Sander's compilation of Henry's law constants.
# Values joined by “and” are separate entries in the source; they are usually repeats but may differ in a detail not shown here. Equal entries are not always repeated.
# Tests used:
# [1] = Henry solubility constant Hcp at 298.15 K (mol/(m3 Pa)); conditions: cited value
# [2] = Henry solubility constant Hcp at 310 K (mol/(m3 Pa)); conditions: cited value
# [3] = Henry solubility constant Hcp at 293 K (mol/(m3 Pa)); conditions: cited value
# [4] = Henry solubility constant Hcp at 277 K (mol/(m3 Pa)); conditions: reference: Roth (1942); cited value
# [5] = Henry solubility constant Hcp at 295 K (mol/(m3 Pa)); conditions: cited value
# [6] = Henry solubility constant Hcp at 311 K (mol/(m3 Pa)); conditions: reference: Orcutt and Seevers (1937b); cited value
# [7] = reference: Burkholder et al. (2015)
# [8] = reference: Burkholder et al. (2019)
# [9] = reference: Fogg and Sangster (2003)
# [10] = reference: Gaffney and Senum (1984)
# [11] = reference: Sander et al. (2006)
# [12] = reference: Sander et al. (2011)
# [13] = reference: Nicholson et al. (1984)
# [14] = reference: Pandis and Seinfeld (1989)
# [15] = reference: Edwards et al. (1978)
# [16] = reference: Mackay et al. (1992b)
# [17] = reference: Barcelo and Hennion (1997)
smiles,measurement,setting,value
CCCC(=O)OCC [ethyl butanoate],Henry solubility constant Hcp,[1]; reference: Brockbank (2013),0.025
same,Henry solubility constant Hcp at 310 K,[2]; reference: Nahon et al. (2000),0.027
CSC [dimethyl sulfide],Henry solubility constant Hcp,[1]; reference: Brockbank (2013),0.0054
same,Henry solubility constant Hcp,[1]; [7],0.0053
same,Henry solubility constant Hcp,[1]; [8],0.0053
same,Henry solubility constant Hcp,[1]; [9],0.0052
same,Henry solubility constant Hcp,[1]; [10],0.0061
same,Henry solubility constant Hcp,[1]; [11],0.0053
same,Henry solubility constant Hcp,[1]; [12],0.0053
same,Henry solubility constant Hcp at 293 K,[3]; reference: Vitenberg et al. (1975),0.007
ClC(Cl)Br [bromodichloromethane],Henry solubility constant Hcp,[1]; [7],0.004
same,Henry solubility constant Hcp,[1]; [8],0.004
same,Henry solubility constant Hcp,[1]; [9],0.0048
same,Henry solubility constant Hcp,[1]; reference: Goldstein (1982),0.0046
same,Henry solubility constant Hcp,[1]; [13],0.0043
same,Henry solubility constant Hcp,[1]; [11],0.004
same,Henry solubility constant Hcp,[1]; [12],0.004
same,Henry solubility constant Hcp at 293 K,[3]; [13],0.0047
CCOC(C)=O [ethyl ethanoate],Henry solubility constant Hcp,[1]; reference: Brockbank (2013),0.065
same,Henry solubility constant Hcp,[1]; [7],0.059
same,Henry solubility constant Hcp,[1]; [8],0.065
same,Henry solubility constant Hcp,[1]; [12],0.059
same,Henry solubility constant Hcp at 310 K,[2]; reference: Nahon et al. (2000),0.039
Cc1cc(C)nc(Nc2ccccc2)n1 [pyrimethanil],Henry solubility constant Hcp at 293 K,[3]; reference: Tomlin (1998),280
ClOCl [dichlorine monoxide],Henry solubility constant Hcp at 277 K,[4],0.07
same,Henry solubility constant Hcp,[1],0.034 and 0.076
CC(Cc1ccc(C(C)(C)C)cc1)CN1CCCCC1 (configuration not stated) [fenpropidin],Henry solubility constant Hcp at 293 K,[3]; reference: Tomlin (1998),0.099
CCCC(=O)OC [methyl butanoate],Henry solubility constant Hcp,[1]; reference: Brockbank (2013),0.039
same,Henry solubility constant Hcp at 310 K,[2]; reference: Nahon et al. (2000),0.036
[Hg] [mercury],Henry solubility constant Hcp,[1]; [7],0.0013
same,Henry solubility constant Hcp,[1]; [8],0.0013
same,Henry solubility constant Hcp,[1]; reference: Clever (1987),0.0012
same,Henry solubility constant Hcp,[1]; reference: Clever et al. (1985),0.0011
same,Henry solubility constant Hcp,[1]; reference: Shon et al. (2005),0.0012
same,Henry solubility constant Hcp at 293 K,[3]; reference: WHO (1990),0.0014
O=CCO [2-hydroxyethanal],Henry solubility constant Hcp at 295 K,[5]; reference: Lee and Zhou (1993),990
ClC(Br)Br [dibromochloromethane],Henry solubility constant Hcp,[1]; [7],0.0086
same,Henry solubility constant Hcp,[1]; [8],0.0086
same,Henry solubility constant Hcp,[1]; [9],0.0087
same,Henry solubility constant Hcp,[1]; reference: Goldstein (1982),0.012
same,Henry solubility constant Hcp,[1]; [13],0.012
same,Henry solubility constant Hcp,[1]; [11],0.0086
same,Henry solubility constant Hcp,[1]; [12],0.0086
same,Henry solubility constant Hcp at 293 K,[3]; [13],0.011
CCCCCCCC=O [octanal],Henry solubility constant Hcp,[1]; reference: Brockbank (2013),0.02
same,Henry solubility constant Hcp at 310 K,[2]; reference: Nahon et al. (2000),0.019
BrBr [bromine (molecular)],Henry solubility constant Hcp,[1]; [7],0.0072
same,Henry solubility constant Hcp,[1]; [8],0.0072
same,Henry solubility constant Hcp,[1]; reference: Jenkins and King (1965),0.0079
same,Henry solubility constant Hcp,[1]; [11],0.0072
same,Henry solubility constant Hcp,[1]; [12],0.0072
same,Henry solubility constant Hcp at 293 K,[3]; reference: Giona et al. (1969),0.0092
CC(=O)CO [1-hydroxypropanone],Henry solubility constant Hcp at 295 K,[5]; reference: Lee and Zhou (1993),77
[N-]=[N+]=O [dinitrogen monoxide],Henry solubility constant Hcp at 311 K,[6],0.00017
same,Henry solubility constant Hcp,[1]; [7],0.00024
same,Henry solubility constant Hcp,[1]; [8],0.00024
same,Henry solubility constant Hcp,[1]; reference: Gordon (1895),0.00026
same,Henry solubility constant Hcp,[1]; [11],0.00024
same,Henry solubility constant Hcp,[1]; [12],0.00024
same,Henry solubility constant Hcp,[1]; reference: Young (1981b),0.00024
same,Henry solubility constant Hcp at 310 K,[2]; reference: Harris (1951),0.00017
same,Henry solubility constant Hcp at 293 K,[3]; reference: Macintosh et al. (1958),0.0003
same,Henry solubility constant Hcp at 293 K,[3]; reference: Nunn (1958),0.00028
CC(=O)OO[N+](=O)[O-] [peroxyacetyl nitrate],Henry solubility constant Hcp,[1]; [7],0.028
same,Henry solubility constant Hcp,[1]; [8],0.028
same,Henry solubility constant Hcp,[1]; [10],0.036
same,Henry solubility constant Hcp,[1]; reference: Leu and Zhang (1999),0.029
same,Henry solubility constant Hcp,[1]; [14],0.029
same,Henry solubility constant Hcp,[1]; [11],0.028
same,Henry solubility constant Hcp,[1]; [12],0.028
same,Henry solubility constant Hcp at 295 K,[5]; reference: Schwartz (1986),0.036
O=O [oxygen],Henry solubility constant Hcp,[1]; reference: Battino (1981),1.3e-05
same,Henry solubility constant Hcp,[1]; reference: Battino et al. (1983),1.3e-05
same,Henry solubility constant Hcp,[1]; [7],1.3e-05
same,Henry solubility constant Hcp,[1]; [8],1.3e-05
same,Henry solubility constant Hcp,[1]; reference: Himmelblau (1960),1.2e-05
same,Henry solubility constant Hcp,[1]; [11],1.3e-05
same,Henry solubility constant Hcp,[1]; [12],1.3e-05
same,Henry solubility constant Hcp at 293 K,[3]; reference: Nunn (1958),1.4e-05
O=C=O [carbon dioxide],Henry solubility constant Hcp,[1]; [7],0.00034
same,Henry solubility constant Hcp,[1]; [8],0.00034
same,Henry solubility constant Hcp,[1]; reference: Carroll et al. (1991),0.00034
same,Henry solubility constant Hcp,[1]; reference: Chen et al. (1979),0.00034
same,Henry solubility constant Hcp,[1]; reference: Crovetto (1991),0.00034
same,Henry solubility constant Hcp,[1]; [15],0.00034
same,Henry solubility constant Hcp,[1]; reference: Lelieveld and Crutzen (1991),0.00034
same,Henry solubility constant Hcp,[1]; [14],0.00034
same,Henry solubility constant Hcp,[1]; reference: Perry and Chilton (1973),0.00034
same,Henry solubility constant Hcp,[1]; [11],0.00033
same,Henry solubility constant Hcp,[1]; [12],0.00033
same,Henry solubility constant Hcp,[1]; reference: Weiss (1974),0.00034
same,Henry solubility constant Hcp,[1]; reference: Yoo et al. (1986),0.00034
same,Henry solubility constant Hcp at 293 K,[3]; reference: Nunn (1958),0.00039
C#C [ethyne],Henry solubility constant Hcp,[1]; [7],0.00041
same,Henry solubility constant Hcp,[1]; [8],0.00041
same,Henry solubility constant Hcp,[1]; reference: Deno and Berkheimer (1960),0.00041
same,Henry solubility constant Hcp,[1]; reference: Fogg et al. (2002),0.00041
same,Henry solubility constant Hcp,[1]; [11],0.00041
same,Henry solubility constant Hcp,[1]; [12],0.00041
same,Henry solubility constant Hcp,[1]; reference: Schoen (1923),0.00041
same,Henry solubility constant Hcp at 293 K,[3]; reference: Vtovec (1968),0.00044
c1ccc(Cc2ccccc2)cc1 [diphenylmethane],Henry solubility constant Hcp,[1]; [16],1
CCC(C)O (configuration not stated) [2-butanol],Henry solubility constant Hcp,[1]; reference: Brockbank (2013),0.95
same,Henry solubility constant Hcp,[1]; [7],1.1
same,Henry solubility constant Hcp,[1]; [8],1.1
same,Henry solubility constant Hcp,[1]; [9],1
same,Henry solubility constant Hcp,[1]; [11],1.1
same,Henry solubility constant Hcp,[1]; [12],1.1
CC(C)=CC1C(C(=O)OCc2cccc(Oc3ccccc3)c2)C1(C)C (configuration not stated) [phenothrin],Henry solubility constant Hcp,[1]; reference: MacBean (2012b),1.5
CCc1ccc2ccccc2c1 [2-ethylnaphthalene],Henry solubility constant Hcp,[1]; [16],0.013
O=S=O [sulfur dioxide],Henry solubility constant Hcp,[1]; reference: Beilke and Gravenhorst (1978),0.012
same,Henry solubility constant Hcp,[1]; [7],0.013
same,Henry solubility constant Hcp,[1]; [8],0.013
same,Henry solubility constant Hcp,[1]; [15],0.012
same,Henry solubility constant Hcp,[1]; reference: Maahs (1982),0.012
same,Henry solubility constant Hcp,[1]; [14],0.012
same,Henry solubility constant Hcp,[1]; reference: Rodríguez-Sevilla et al. (2001),0.012
same,Henry solubility constant Hcp,[1]; [11],0.013
same,Henry solubility constant Hcp,[1]; [12],0.013
same,Henry solubility constant Hcp,[1]; reference: Yoo et al. (1986),0.012
same,Henry solubility constant Hcp,[1]; reference: Young (1983),0.013
CCCCOCCOCCOCCCC [diethylene glycol dibutyl ether],Henry solubility constant Hcp,[1]; reference: Brockbank (2013),2.5
C1CCCCCCC1 [cyclooctane],Henry solubility constant Hcp,[1]; reference: Brockbank (2013),7.3e-05
c1ccc2cc3c(cc2c1)-c1cccc2cccc-3c12 [benzo[k]fluoranthene],Henry solubility constant Hcp,[1]; reference: Goldstein (1982),0.0096
ClBr [bromine chloride],Henry solubility constant Hcp,[1]; [7],0.0097
same,Henry solubility constant Hcp,[1]; [8],0.0097
same,Henry solubility constant Hcp,[1]; [11],0.0097
same,Henry solubility constant Hcp,[1]; [12],0.0097
Cc1ccc(NC(=O)N(C)C)cc1Cl [chlortoluron],Henry solubility constant Hcp,[1]; [17],190
COc1cc(C=O)ccc1O [vanillin],Henry solubility constant Hcp,[1]; reference: Brockbank (2013),1700
CCNc1nc(NC(C)(C)C)nc(SC)n1 [terbutryn],Henry solubility constant Hcp,[1]; [17],7.6
CCSC(=O)N(CC(C)C)CC(C)C [butylate],Henry solubility constant Hcp,[1]; [17],0.018
C=CCCCCCC [1-octene],Henry solubility constant Hcp,[1]; reference: Brockbank (2013),1.6e-05
NC1CCCCC1 [cyclohexanamine],Henry solubility constant Hcp,[1]; reference: Brockbank (2013),2.2
Brc1ccccc1 [bromobenzene],Henry solubility constant Hcp,[1]; reference: Brockbank (2013),0.0043
same,Henry solubility constant Hcp,[1]; [9],0.005
same,Henry solubility constant Hcp,[1]; reference: HSDB (2015),0.0047
COC[C@H](C)N(C(=O)CCl)c1c(C)csc1C [dimethenamid-p],Henry solubility constant Hcp,[1]; reference: MacBean (2012b),2100
c1ccc(Nc2ccccc2)cc1 [diphenylamine],Henry solubility constant Hcp,[1]; reference: Howard et al. (1991),3.5
[Ne] [neon],Henry solubility constant Hcp,[1]; reference: Clever (1979a),4.5e-06
ClCC1CO1 (configuration not stated) [(chloromethyl)-oxirane],Henry solubility constant Hcp,[1]; reference: Goldstein (1982),0.28
COC(=O)N(OC)c1ccccc1COc1ccn(-c2ccc(Cl)cc2)n1 [pyraclostrobine],Henry solubility constant Hcp,[1]; reference: MacBean (2012b),190000
